Test results taken from patent publication US10695310B2, “D-serine treatment for neurological disorders that cause seizures” (Florida State University Research Foundation, Inc., priority 2013, dated 2020).

Key:
pilocarpine treated rats = test: Video-monitored seizure activity in pilocarpine treated rats (temporal lobe epilepsy model), D-serine infused at the medial entorhinal cortex; assay type: in vivo, Sprague-Dawley rats
Experimental: (§1) Male Sprague-Dawley rats weighing about 200 grams were treated with a single systemic treatment of the cholinergic muscarinic agonist pilocarpine to mimic temporal lobe epilepsy as described by Kumar and Buckmaster in Journal of Neuroscience 26: 4613-4623 (2006), which is incorporated by reference herein. The rats were unilaterally implanted with a brain cannula and allowed to recover for three days prior to being treated with pilocarpine. The pilocarpine dose was 380 mg/kg. Following control of status epilepticus with diazepam and a latent period, 90% of the pilocarpine treated rats developed chronic spontaneous seizures with an underlying pathology that mimicked the kind seen in human patients with temporal lobe epilepsy. After pilocarpine treatment, a test group of rats was administered D-serine and a control group of rats was administered aCSF daily for 12 days. The first administration occurred two hours after pilocarpine treatment. The rats were video-monitored forty hours per week for frank seizure activity for the duration of the infusions.

[1] = target: T1, conventional diheteroemric NMDARs (Rattus norvegicus, UniProt P35439); test: NMDAR-mediated EPSC at Str synapses; assay type: cell-based, Sprague-Dawley rats; conditions: 10 and 100 micromolar; pure NMDAR-mediated EPSC, +30 mV
T1 construct: effect of D-serine on EPSCs for L1 and Str synapses of rat brains; from tissue; host or cells: rat brain; synaptic currents recorded from single neurons (Str input)
Source text: (§2) FIG. 6 is a set of graphs showing the effect of D-serine on EPSCs for L1 and Str synapses of rat brains. The left panel depicts the average consecutive records (≤10) of pure NMDAR-mediated EPSC (pharmacologically isolated in a mixture containing NBQX and picrotoxin—PTX 50 micromolar, —to block AMPA-kainite receptors and GABAA-mediated inhibition) evoked in a single neuron (+30 mV) under the indicated conditions. The middle panel depicts the average percentage change in amplitude for both responses and the time course of these changes with D-serine administration times marked by the shaded region on the time plots.
(§3) The NMDARs at L1 inputs are GluN3-containing triheteromeric NMDARS, whereas the NMDARs at Str inputs are conventional diheteroemric NMDARs. To directly investigate Ca(2+)-permeability of NMDARs at L1 and Str synapses of Sprague-Dawley rats, shifts in reversal potential (Erev) of the synaptically activated currents were measured during local perfusion of isosmotic solutions with different extracellular Ca(2+) concentrations.

[2] = test system: GluN3-containing triheteromeric NMDARS; test: NMDAR-mediated EPSC at L1 synapses; assay type: cell-based, Sprague-Dawley rats; conditions: 10 and 100 micromolar; pure NMDAR-mediated EPSC, +30 mV; suppression greatest at the higher concentration
Source text: as §2, §3

[3] = test system: LIII of the medial entorhinal cortex; test: Stereological cell count in LIII of the medial entorhinal cortex, Nissl-stained brain slices of pilocarpine treated rats; assay type: in vivo, Sprague-Dawley rats
Experimental: as §1, with “infusions. Following the treatment regimen, the rats were euthanized and their brains removed following intra-aortal perfusion with a fixative. Horizontal brain slices 50 micrometers thick from both groups were Nissl-stained for stereological quantification of cell populations in LIII of the medial entorhinal cortex.” for “infusions.”

## N[C@H](CO)C(=O)O [D-serine]
Pilocarpine treated rats; D-serine daily for 12 days, 90% without D-serine
  percentage of pilocarpine treated rats that developed seizures: 25%
Pilocarpine treated rats; pilocarpine treated rats, D-serine daily for 12 days via brain cannula, video-monitored forty hours per week
  rats seizure-free: 75%
[1]
  effect on Str EPSCs: neither consistent nor statistically significant
[2]
  effect on L1 EPSCs: significantly suppressed
[3]; LIII of medial entorhinal cortex, after 12 days treatment following pilocarpine, naive control 159 ± 21, vehicle 77 ± 1
  Mean est. cell count (left + right): 140 ± 10
[3]; after pilocarpine treatment
  reduction of cell loss in LIII: about 80%
[3]; left medial entorhinal cortex of cannulated rats, FIG. 3
  cell loss in LIII from brain slice images: prevented cell loss in LIII
